Measured values as given in publication PMC9661477, “New Dual P-Glycoprotein (P-gp) and Human Carbonic Anhydrase XII (hCA XII) Inhibitors as Multidrug Resistance (MDR) Reversers in Cancer Cells” (Journal of Medicinal Chemistry, 2022).

Experiments:
A549 cells = assay: kinetic parameters of doxorubicin efflux in A549 cells; type: cell-based, human; conditions: doxorubicin alone
Description: (§1) Cells were incubated for 3 h with 5 μM doxorubicin, alone or with the selected compounds, washed with PBS, trypsinized, centrifuged at 13 000g for 5 min, and resuspended in 0.5 mL of 1/1 solution ethanol/0.3 N HCl. […] To calculate the kinetic parameters, cells were incubated for 20 min with increasing (0–100 μM) concentrations of doxorubicin, alone or with the indicated compounds, then analyzed for the intracellular concentration of doxorubicin. […] The difference in the doxorubicin concentration between the two series, expressed as nmol doxorubicin extruded/min/mg cell proteins, was plotted versus the initial drug concentration.[69] Values were fitted to the Michaelis–Menten equation to calculate Vmax and Km, using the Enzfitter software (Biosoft Corporation, Cambridge, United Kingdom).

P-gp KO A549/DOX cells = assay: cells; conditions: Homo sapiens, A549, read-out: IC50 of doxorubicin
A549/DOX cells [1] = assay: cells; conditions: Homo sapiens, A549, 72 h, read-out: IC50 of doxorubicin
[2] = test system: hCA XII KO A549/DOX cells; assay: kinetic parameters of doxorubicin efflux in hCA XII KO A549/DOX cells; type: cell-based, human; conditions: doxorubicin alone
Description: as §1

[3] = test system: hCA XII KO HT29/DOX cells; assay: doxorubicin cytotoxicity enhancement assay in hCA XII KO HT29/DOX cells; type: cell-based; conditions: Homo sapiens, HT-29
HT29 cells [4] = assay: doxorubicin cytotoxicity in HT29 cells; type: cell-based; conditions: Homo sapiens, HT-29, 72 h, MTT
Description: Human chemosensitive colon cancer HT29 cells, lung cancer A549 cells, not-transformed human colon epithelial EpiCoC cells, and lung epithelial BEAS-2B cells were purchased from ATCC (Manassas, VA). […] Cells were maintained in media supplemented with 10% v/v fetal bovine serum, 1% v/v penicillin–streptomycin, and 1% v/v L-glutamine. […] Knockout efficacy was evaluated by immunoblotting, as reported below.

P-gp KO HT29/DOX cells = assay: cells; conditions: Homo sapiens, HT-29, read-out: IC50 of doxorubicin
A549/DOX cells [5] = assay: kinetic parameters of doxorubicin efflux in A549/DOX cells; type: cell-based, human; conditions: doxorubicin alone
Description: as §1

HT29/DOX cells [6] = assay: kinetic parameters of doxorubicin efflux in HT29/DOX cells; type: cell-based, human; conditions: doxorubicin alone
Description: as §1

HT29 cells [7] = assay: kinetic parameters of doxorubicin efflux in HT29 cells; type: cell-based, human; conditions: doxorubicin alone
Description: as §1

[8] = test system: hCA XII KO A549/DOX cells; assay: doxorubicin cytotoxicity enhancement assay in hCA XII KO A549/DOX cells; type: cell-based; conditions: Homo sapiens
[9] = test system: hCA XII KO HT29/DOX cells; assay: kinetic parameters of doxorubicin efflux in hCA XII KO HT29/DOX cells; type: cell-based, human; conditions: doxorubicin alone
Description: as §1

HT29/DOX cells [10] = assay: cells; conditions: Homo sapiens, HT-29, 72 h, read-out: IC50 of doxorubicin

IC50 (P-gp KO A549/DOX cells): 900 ± 13 nM
IC50 (A549/DOX cells [1]): 15.5 ± 0.93 µM
IC50 (P-gp KO HT29/DOX cells): 460 ± 13 nM
IC50 (HT29/DOX cells [10]): 12 ± 0.85 µM
Compound: COc1cccc2c1C(=O)c1c(O)c3c(c(O)c1C2=O)C[C@@](O)(C(=O)CO)C[C@@H]3O[C@H]1C[C@H](N)[C@H](O)[C@H](C)O1 [DOX, doxorubicin]
Km (A549 cells): 470 ± 17 nM
Vmax of doxorubicin efflux (A549 cells): 2.35 ± 0.08 µmol/min
Km [2]: 550 ± 28 nM
Vmax of doxorubicin efflux [2]: 4.08 ± 0.32 µmol/min
IC50 [3]: 1300 ± 60 nM
IC50 (HT29 cells [4]): 1380 ± 30 nM
Km (A549/DOX cells [5]): 450 ± 19 nM
Vmax of doxorubicin efflux (A549/DOX cells [5]): 7.51 ± 0.31 µmol/min
Km (HT29/DOX cells [6]): 540 ± 10 nM
Vmax of doxorubicin efflux (HT29/DOX cells [6]): 8.10 ± 0.15 µmol/min
Km (HT29 cells [7]): 550 ± 28 nM
Vmax of doxorubicin efflux (HT29 cells [7]): 3.21 ± 0.04 µmol/min
IC50 [8]: 5.44 ± 1.5 µM
Km [9]: 580 ± 30 nM
Vmax of doxorubicin efflux [9]: 5.47 ± 0.12 µmol/min
